Assay results: US20250282776A1, “Bicyclic TLR7 Agonists and Uses Thereof” (Bristol-Myers Squibb Company, priority 2024, published 2025)
pEC50: −log10 of the molar value.

Columns and labels:
[1] = biological target: T1, human TLR8 (hTLR8) (Homo sapiens, UniProt Q9NR97); assay: Human TLR8 agonist activity assay (measured in a similar manner); assay type: cell-based; settings: HEK-Blue TLR cells, SEAP reporter, measured in a similar manner to TLR7; some values average of multiple measurements
T1 construct: expressed in transfected cells
T1 sequence (Q9NR97 27-1041): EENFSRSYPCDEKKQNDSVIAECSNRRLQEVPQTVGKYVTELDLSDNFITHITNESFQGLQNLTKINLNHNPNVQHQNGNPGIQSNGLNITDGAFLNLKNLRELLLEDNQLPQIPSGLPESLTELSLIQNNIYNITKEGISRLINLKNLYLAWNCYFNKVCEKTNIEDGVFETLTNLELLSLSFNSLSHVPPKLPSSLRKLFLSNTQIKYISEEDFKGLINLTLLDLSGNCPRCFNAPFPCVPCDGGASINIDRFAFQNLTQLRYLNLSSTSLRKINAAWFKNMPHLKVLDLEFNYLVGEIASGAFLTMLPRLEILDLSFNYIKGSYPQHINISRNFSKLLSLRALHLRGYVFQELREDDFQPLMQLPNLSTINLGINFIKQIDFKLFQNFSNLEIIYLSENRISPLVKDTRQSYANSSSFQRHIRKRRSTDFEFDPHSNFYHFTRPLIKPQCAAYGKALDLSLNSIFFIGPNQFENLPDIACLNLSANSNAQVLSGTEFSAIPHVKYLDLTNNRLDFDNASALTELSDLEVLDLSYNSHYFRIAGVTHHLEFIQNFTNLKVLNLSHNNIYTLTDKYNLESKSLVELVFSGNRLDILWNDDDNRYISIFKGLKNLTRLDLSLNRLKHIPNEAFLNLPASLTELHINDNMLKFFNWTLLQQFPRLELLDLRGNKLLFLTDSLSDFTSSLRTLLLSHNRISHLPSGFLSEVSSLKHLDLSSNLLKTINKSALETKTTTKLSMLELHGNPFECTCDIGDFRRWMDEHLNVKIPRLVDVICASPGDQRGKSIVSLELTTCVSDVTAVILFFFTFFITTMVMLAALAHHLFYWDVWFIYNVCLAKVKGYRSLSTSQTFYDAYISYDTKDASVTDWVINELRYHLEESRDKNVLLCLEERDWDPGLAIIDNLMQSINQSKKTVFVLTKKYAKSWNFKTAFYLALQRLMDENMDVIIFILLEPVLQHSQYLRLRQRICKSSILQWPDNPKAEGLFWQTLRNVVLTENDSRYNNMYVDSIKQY
Protocol: (§1) This procedure describes a method for assaying human TLR7 (hTLR7) and human TLR8 (hTLR8) agonist activity of the compounds disclosed herein.
HEK-Blue™ TLR7 cells were added to each well of a 384-well tissue-culture plate (15,000 cells per well) and incubated 16-18 h at 37° C., 5% CO2. Compounds (100 nL) were dispensed into wells containing the HEK-Blue™ TLR cells and the treated cells were incubated at 37° C., 5% CO2. After 18 h, ten microliters 5 of freshly prepared Quanti-Blue™ reagent (Invivogen) was added to each well and incubated for 30 min (37° C., […]). SLAP levels were measured using an Envision plate reader (OD=620 nm). […] Some of the reported activities were the average of multiple measurements.
TLR8 activity was measured in a similar manner.

[2] = biological target: T2, human TLR7 (hTLR7) (Homo sapiens, UniProt Q9NYK1); assay: Human TLR7 agonist activity assay (HEK-Blue TLR7 SEAP reporter); assay type: cell-based; settings: HEK-Blue TLR7 cells, 18 h incubation, Quanti-Blue, OD 620 nm, some values average of multiple measurements
T2 construct: host or cells: HEK-Blue TLR7 cells (engineered human embryonic kidney cells)
T2 sequence (Q9NYK1 27-1049): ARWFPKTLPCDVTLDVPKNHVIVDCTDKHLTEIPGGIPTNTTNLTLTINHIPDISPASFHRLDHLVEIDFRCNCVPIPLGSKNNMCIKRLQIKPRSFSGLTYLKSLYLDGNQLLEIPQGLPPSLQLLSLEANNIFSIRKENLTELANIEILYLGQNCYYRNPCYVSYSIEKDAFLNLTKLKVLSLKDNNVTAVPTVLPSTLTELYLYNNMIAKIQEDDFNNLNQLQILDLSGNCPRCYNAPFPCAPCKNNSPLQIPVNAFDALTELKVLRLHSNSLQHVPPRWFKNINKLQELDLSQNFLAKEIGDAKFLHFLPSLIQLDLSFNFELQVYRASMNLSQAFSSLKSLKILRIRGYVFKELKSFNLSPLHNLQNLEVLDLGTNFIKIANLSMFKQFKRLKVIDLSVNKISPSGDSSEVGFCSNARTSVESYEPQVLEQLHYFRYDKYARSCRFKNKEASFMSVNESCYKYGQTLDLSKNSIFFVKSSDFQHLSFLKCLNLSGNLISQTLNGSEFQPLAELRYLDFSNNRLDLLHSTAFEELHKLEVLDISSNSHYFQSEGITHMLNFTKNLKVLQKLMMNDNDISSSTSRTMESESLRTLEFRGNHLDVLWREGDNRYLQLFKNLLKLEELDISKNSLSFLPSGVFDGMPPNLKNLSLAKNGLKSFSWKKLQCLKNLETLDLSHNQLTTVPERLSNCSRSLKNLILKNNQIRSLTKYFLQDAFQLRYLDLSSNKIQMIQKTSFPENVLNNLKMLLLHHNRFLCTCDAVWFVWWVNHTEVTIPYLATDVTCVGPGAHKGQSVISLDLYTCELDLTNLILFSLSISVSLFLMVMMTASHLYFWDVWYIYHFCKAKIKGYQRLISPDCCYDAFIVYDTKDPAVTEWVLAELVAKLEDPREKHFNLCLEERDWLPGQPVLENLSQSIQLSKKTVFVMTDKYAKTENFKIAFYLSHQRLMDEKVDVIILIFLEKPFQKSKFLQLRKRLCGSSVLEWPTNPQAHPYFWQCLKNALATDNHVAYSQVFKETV
Protocol: as §1
HEK-Blue™ TLR7 cells were added to each well of a 384-well tissue-culture plate (15,000 cells per well) and incubated 16-18 h at 37° C., 5% CO2. Compounds (100 nL) were dispensed into wells containing the HEK-Blue™ TLR cells and the treated cells were incubated at 37° C., 5% CO2. After 18 h, ten microliters 5 of freshly prepared Quanti-Blue™ reagent (Invivogen) was added to each well and incubated for 30 min (37° C., […]). SLAP levels were measured using an Envision plate reader (OD=620 nm). The half maximal effective concentration values (ECSO; compound concentration which induced a response halfway between the assay baseline and maximum) were calculated. Some of the reported activities were the average of multiple measurements.

Row | SMILES | pEC50 [1] | pEC50 [2]
1 | CCCCN(CCO)c1nc(N)nc2cn(Cc3c(F)cc(C4=CCNCC4)cc3OC)nc12 [Compound 15] | 5.60 | 6.16
2 | CCCCN(CCO)c1nc(N)nc2cn(Cc3c(F)cc(CNCCOC)cc3F)nc12 [Compound 114] | 5.74 | 5.98
3 | CCCCN(CCO)c1nc(N)nc2cn(Cc3ccc(CN[C@H]4CCOC4)cc3OC)nc12 [Compound 52] | 5.97 | 5.92
4 | CCCCN(c1nc(N)nc2cn(Cc3ccc(CN4CCCCC4)cc3OC)nc12)C(C)CO (stereo not drawn) [Compound 50] | 6.02 | 6.43
5 | CCCCN(CCO)c1nc(N)nc2cn(Cc3ccc(CNC4CCC4)cc3OC)nc12 [Compound 1] | 5.94 | 5.89
6 | CCCCN(CCO)c1nc(N)nc2cn(Cc3c(F)cc(C4CCN(C5CCOCC5)CC4)cc3OC)nc12 [Compound 37, 2-((5-amino-2-(2-fluoro-6-methoxy-4-(1-(tetrahydro-2H-pyran-4-yl)piperidin-4-yl)benzyl)-2H-pyrazolo[4,3-d]pyrimidin-7-yl)(butyl)amino)ethan-1-ol] | 6.29 | 6.75
7 | CCCCN(CCO)c1nc(N)nc2cn(Cc3ccc(CNC4CCOC(C)(C)C4)cc3OC)nc12 (single isomer, unassigned) [Compound 111, 2-((5-Amino-2-(4-(((2,2-dimethyltetrahydro-2H-pyran-4-yl)amino)methyl)-2-methoxybenzyl)-2H-pyrazolo[4,3-d]pyrimidin-7-yl)(butyl)amino) ethan-1-ol] | 6.34 | 6.18
8 | CCCCN(c1nc(N)nc2cn(Cc3ccc(CN[C@@H]4CCOC4)cc3OC)nc12)C(C)CO (stereo partly drawn) [Compound 86] | 6.51 | 6.64
9 | CCCCN(CCO)c1nc(N)nc2cn(Cc3ccc(CNC4CCOC(C)(C)C4)cc3OC)nc12 (racemic) [Compound 103, 2-((5-Amino-2-(4-(((2,2-dimethyltetrahydro-2H-pyran-4-yl)amino)methyl)-2-methoxybenzyl)-2H-pyrazolo[4,3-d]pyrimidin-7-yl)(butyl)amino) ethan-1-ol] | 6.69 | 6.49
10 | CCCCNCc1ccc(Cn2cc3nc(N)nc(N(CCO)CCCC)c3n2)c(C(F)F)c1 [Compound 127] | 5.62 | 5.74
11 | CCCCN(CCO)c1nc(N)nc2cn(Cc3cc(OC)c(C4CCN(CCOC)CC4)cc3OC)nc12 [Compound 106] | 5.60 | 5.94
12 | CCCCN(CCO)c1nc(N)nc2cn(Cc3c(F)cc(C4CCNCC4)cc3OC)nc12 [Compound 16] | 5.60 | 6.13
13 | CCCCN(CCO)c1nc(N)nc2cn(Cc3ccc(CN4CCCCC4)cc3OC)nc12 [Compound 2] | 6.00 | 5.87
14 | CCCCN(CCO)c1nc(N)nc2cn(Cc3ccc(CNC(C)(C)COC)cc3OC)nc12 [Compound 33] | 6.28 | 6.26
15 | CCCCN(CCO)c1nc(N)nc2cn(Cc3ccc(CNC(C)(C)C)cc3C(F)F)nc12 [Compound 128] | 6.20 | 5.92
16 | CCCCN(CCO)c1nc(N)nc2cn(Cc3ccc(CNC(C)(C)C)c4c3OCCC4)nc12 [Compound 148] | 6.34 | 5.74
17 | CCCCN(CCO)c1nc(N)nc2cn(Cc3c(OC)cc(CNCCOC)cc3OC)nc12 [Compound 143] | 5.73 | 5.77
18 | CCCCN(CCO)c1nc(N)nc2cn(Cc3c(F)cc(CN[C@H]4C[C@H](OC)C4)cc3F)nc12 [Compound 119] | 5.71 | 6.87
19 | CCCCN(CCO)c1nc(N)nc2cn(Cc3ccc(CNC4CCOCC4)c4c3OCCC4)nc12 [Compound 137] | 6.40 | 5.98
20 | CCCCN(CCO)c1nc(N)nc2cn(Cc3ccc(CN4CC5(CCO5)C4)cc3OC)nc12 [Compound 28] | 6.58 | 6.55

Now from value to compound:

Row | pEC50 [1] | pEC50 [2] | SMILES
21 | 5.77 | 6.25 | CCCCN(CCO)c1nc(N)nc2cn(Cc3c(F)cc(C4=CCC(NC5CCOCC5)CC4)cc3OC)nc12 (stereo not drawn) [Compound 190]
22 | 5.50 | 5.58 | COc1cc(CN[C@@H]2CCOC2)ccc1Cn1cc2nc(N)nc(N(CCO)CCCCF)c2n1 [Compound 173]
23 | 5.96 | 6.23 | CCCCN(CCO)c1nc(N)nc2cn(Cc3ccc(CN[C@H]4CCCN(C)C4)c4cccnc34)nc12 [Compound 168]
24 | 5.84 | 6.12 | CCCCN(CCO)c1nc(N)nc2cn(Cc3ccc(CN[C@H]4C[C@H](OC)C4)n4ncnc34)nc12 [Compound 174]
25 | 6.14 | 6.21 | CCCCN(CCO)c1nc(N)nc2cn(Cc3ccc(CNC4CCCOC4)c4scnc34)nc12 (stereo not drawn) [Compound 202]
26 | 6.30 | 6.18 | CCCCN(CCO)c1nc(N)nc2cn(Cc3ccc(CNCCOC)cc3)nc12 [Compound 161]
27 | 6.95 | 6.83 | CCCCN(CCO)c1nc(N)nc2c(C)n(Cc3ccc(CNC4CCOCC4)cc3OC)nc12 [Compound 212, 2-((5-Amino-2-(2-methoxy-4-(((tetrahydro-2H-pyran-4-yl)amino)methyl)benzyl)-3-methyl-2H-pyrazolo[4,3-d]pyrimidin-7-yl) (butyl)amino) ethan-1-ol]
28 | 6.17 | 6.40 | CCCCN(CCO)c1nc(N)nc2cn(Cc3ccc(CNC4CCS(=O)(=O)CC4)c4scnc34)nc12 [Compound 213]
29 | 5.68 | 5.95 | CCCCN(CCO)c1nc(N)nc2cn(Cc3c(F)cc(C4CCN(C5CCOCC5)CC4)cc3C#N)nc12 [Compound 150]
30 | 6.48 | 6.51 | CCCCN(CCO)c1nc(N)nc2cn(Cc3ccc(CNC4CCC4)n4ncnc34)nc12 [Compound 175, 2-((5-Amino-2-((5-((cyclobutylamino)methyl)-[1,2,4]triazolo[1,5-a]pyridin-8-yl)methyl)-2H-pyrazolo[4,3-d]pyrimidin-7-yl)(butyl)amino)ethan-1-ol]
